Data published in publication PMC10010643 (Cancer Chemotherapy and Pharmacology, 2023).
“And” between values parts separate entries of the source, which are not always exact repeats. Equal values may be shown once. “Also recorded” adds a separate entry of the source. Read-outs that look alike come from different tables or passages of the source.

Assay: Plasma PK, Part A single oral doses in healthy participants
Format: in vivo, human
Conditions: for AUC(0-t) / AUC(0-inf) / Cmax / Tmax / Vd/F / half-life: human, plasma; for Vd/F: read-out: Vz/F, geometric mean (CV%)
Procedure: A further two cohorts were recruited. […] Each individual participated in one treatment period only, with the exception of the food-effect cohort (cohort A3) in which there were two treatment periods separated by at least 7 days washout. Participants resided at the Clinical Research Unit (CRU) from 1 day ahead of dosing (day − 1) to day 3 and returned for a follow-up visit 5–7 days after their final dose. For all cohorts, doses were administered in the fasted state in the morning of day 1 of Treatment Period 1. In the food-effect cohort, doses were given 30 min after the start of a high-fat breakfast (973 calories total: approximately 150 protein calories, 250 carbohydrate calories, and 500–600 fat calories) on day 1 of Treatment Period 2. For cohorts A1 to A5 in Treatment Period 1, dosing occurred such that one pair (one active and one placebo) were dosed at least 24 h before the remaining participants. Continuation to dose those who remained was at the investigator’s discretion. Escalating doses were administered following satisfactory sponsor and investigator review of the safety and tolerability data (up to 48 h post-final dose) and PK data (up to 24 h post-final dose) from the lower dose levels.
Blood samples (4 mL) were collected in K3 EDTA tubes by venipuncture or cannulation. In Part A, samples were taken pre-dose and at 0.5, 1, 1.5, 2, 3, 4, 6, 8, 12, 16, 24, 36 and 48 h post-dose. In part B, samples were taken pre-dose on days 1 (pre-AM dose) and 10 (pre-final dose) and at 0.5, 1, 1.5, 2, 3, 4, 6, 8 and 12 h post-AM dose for day 1 and post-final dose for day 10. Samples were also taken on days 4–9 pre-AM dose, on day 11 at 24 and 36 h post-final dose, and on day 12 at 48 h post-final dose. Blood samples were centrifuged at 1500 g for 10 min at […] and split into two plasma aliquots.
Urine was collected by spot collection in Part A only before dosing and between 0–6, 6–12, 12–24, and 24–48 h post-dose. Blood and urine aliquots were stored in polypropylene tubes at − 70 °C until bioanalysis.
Noncompartmental PK analysis was performed on individual plasma and urine concentration data, using Phoenix® WinNonlin® 8.1 software (Certara USA Inc., Princeton NJ). Plasma PK parameter endpoints for Part A included area under the plasma concentration–time curve (AUC) from time 0 to infinity (AUC0–∞), AUC from time 0 to the time of the last quantifiable concentration (AUC0–tlast), maximum observed plasma concentration (Cmax), time of the maximum observed plasma concentration (Tmax), terminal half-life in plasma (t½), apparent total plasma clearance (CL/F), and apparent volume of distribution (Vz/F). Urine PK parameters calculated in Part A included amount of drug excreted in urine (Ae), percentage of dose excreted unchanged in urine (fe) and renal clearance (CLR).
Dose proportionality was analyzed for exposure parameters after fasted doses. The power model was used on AUC0–∞, AUC0–tlast, and Cmax on day 1 in Part A. Data were analyzed over two dose ranges: 50–400 mg (50 mg capsules) and 5–50 mg (5 mg capsules). An analysis of variance was used on AUC0–τ and Cmax on day 10 in Part B. The effect of food on AUC0–∞, AUC0–tlast, and Cmax at 50 mg in Part A was investigated using a mixed model which included treatment as a fixed effect and subject as a random effect.

[1] = 50 mg after a high-fat meal vs fasted

SMILES: OC[C@H]1O[C@H](Sc2cncc(Br)c2)[C@H](O)[C@@H](n2cc(-c3cc(F)c(F)c(F)c3)nn2)[C@H]1O [GB1211]
- Delay of absorption in the fed state [1]: 2 h and ~ 2 h
- Effect of food on systemic exposure [1]: unaffected; also recorded: did not markedly affect systemic exposure; also recorded: minor food-effect on drug disposition
- Dose proportionality of systemic exposure (5–50 mg (5 mg capsule) dose range): dose-proportional manner
- Dose proportionality of systemic exposure (50–400 mg (50 mg capsule) dose range): sub-proportional manner
- AUC(0-t) (oral, 5 mg, single dose 5 mg (1 × 5 mg), fasted, read-out: AUC0–tlast, geometric mean (CV%)): 677 ng·h/mL
- AUC(0-inf) (oral, 5 mg, single dose 5 mg (1 × 5 mg), fasted, read-out: AUC0–∞, geometric mean (CV%)): 712 ng·h/mL
- Cmax (oral, 5 mg, single dose 5 mg (1 × 5 mg), fasted, read-out: Cmax, geometric mean (CV%)): 75.2 ng/mL
- Tmax (oral, 5 mg, single dose 5 mg (1 × 5 mg), fasted, read-out: Tmax, median (min–max)): 2 h
- Vd/F (oral, 5 mg, single dose 5 mg (1 × 5 mg), fasted): 114 L
- half-life (oral, 5 mg, single dose 5 mg (1 × 5 mg), fasted, read-out: t½, arithmetic mean (SD) (converted)): 11.3 h
- AUC(0-t) (oral, 20 mg, single dose 20 mg (4 × 5 mg), fasted, read-out: AUC0–tlast, geometric mean (CV%)): 3150 ng·h/mL
- AUC(0-inf) (oral, 20 mg, single dose 20 mg (4 × 5 mg), fasted, read-out: AUC0–∞, geometric mean (CV%)): 3350 ng·h/mL
- Cmax (oral, 20 mg, single dose 20 mg (4 × 5 mg), fasted, read-out: Cmax, geometric mean (CV%)): 365 ng/mL
- Tmax (oral, 20 mg, single dose 20 mg (4 × 5 mg), fasted, read-out: Tmax, median (min–max)): 1.75 h
- Vd/F (oral, 20 mg, single dose 20 mg (4 × 5 mg), fasted): 104 L
- half-life (oral, 20 mg, single dose 20 mg (4 × 5 mg), fasted, read-out: t½, arithmetic mean (SD) (converted)): 12.2 h
- AUC(0-t) (oral, 50 mg, Fasted, read-out: AUC0–tlast, geometric LS means): 4180 ng·h/mL
- AUC(0-inf) (oral, 50 mg, Fasted, read-out: AUC0–∞, geometric LS means): 4520 ng·h/mL
- Cmax (oral, 50 mg, Fasted, read-out: Cmax, geometric LS means): 358 ng/mL
- AUC(0-t) (oral, 50 mg, Fed, read-out: AUC0–tlast, geometric LS means): 4930 ng·h/mL
- AUC(0-inf) (oral, 50 mg, Fed, read-out: AUC0–∞, geometric LS means): 5420 ng·h/mL
- Cmax (oral, 50 mg, Fed, read-out: Cmax, geometric LS means): 389 ng/mL
- AUC(0-t) (oral, 50 mg, single dose 50 mg (1 × 50 mg), fasted, read-out: AUC0–tlast, geometric mean (CV%)): 4180 ng·h/mL
- AUC(0-inf) (oral, 50 mg, single dose 50 mg (1 × 50 mg), fasted, read-out: AUC0–∞, geometric mean (CV%)): 4520 ng·h/mL
- Cmax (oral, 50 mg, single dose 50 mg (1 × 50 mg), fasted, read-out: Cmax, geometric mean (CV%)): 358 ng/mL
- Tmax (oral, 50 mg, single dose 50 mg (1 × 50 mg), fasted, read-out: Tmax, median (min–max)): 3.04 h
- Vd/F (oral, 50 mg, single dose 50 mg (1 × 50 mg), fasted): 200 L
- half-life (oral, 50 mg, single dose 50 mg (1 × 50 mg), fasted, read-out: t½, arithmetic mean (SD) (converted)): 12.7 h
- AUC(0-t) (oral, 50 mg, single dose 50 mg (1 × 50 mg), fed, read-out: AUC0–tlast, geometric mean (CV%)): 4930 ng·h/mL
- AUC(0-inf) (oral, 50 mg, single dose 50 mg (1 × 50 mg), fed, read-out: AUC0–∞, geometric mean (CV%)): 5420 ng·h/mL
- Cmax (oral, 50 mg, single dose 50 mg (1 × 50 mg), fed, read-out: Cmax, geometric mean (CV%)): 389 ng/mL
- Tmax (oral, 50 mg, single dose 50 mg (1 × 50 mg), fed, read-out: Tmax, median (min–max)): 5 h
- Vd/F (oral, 50 mg, single dose 50 mg (1 × 50 mg), fed): 169 L
- half-life (oral, 50 mg, single dose 50 mg (1 × 50 mg), fed, read-out: t½, arithmetic mean (SD) (converted)): 12.9 h
- AUC(0-t) (oral, 50 mg, single dose 50 mg (10 × 5 mg), fasted, read-out: AUC0–tlast, geometric mean (CV%)): 6890 ng·h/mL
- AUC(0-inf) (oral, 50 mg, single dose 50 mg (10 × 5 mg), fasted, read-out: AUC0–∞, geometric mean (CV%)): 7480 ng·h/mL
- Cmax (oral, 50 mg, single dose 50 mg (10 × 5 mg), fasted, read-out: Cmax, geometric mean (CV%)): 861 ng/mL
- Tmax (oral, 50 mg, single dose 50 mg (10 × 5 mg), fasted, read-out: Tmax, median (min–max)): 1.75 h
- Vd/F (oral, 50 mg, single dose 50 mg (10 × 5 mg), fasted): 133 L
- half-life (oral, 50 mg, single dose 50 mg (10 × 5 mg), fasted, read-out: t½, arithmetic mean (SD) (converted)): 13.8 h
- AUC(0-t) (oral, 100 mg, single dose 100 mg (2 × 50 mg), fasted, read-out: AUC0–tlast, geometric mean (CV%)): 5910 ng·h/mL
- AUC(0-inf) (oral, 100 mg, single dose 100 mg (2 × 50 mg), fasted, read-out: AUC0–∞, geometric mean (CV%)): 6380 ng·h/mL
- Cmax (oral, 100 mg, single dose 100 mg (2 × 50 mg), fasted, read-out: Cmax, geometric mean (CV%)): 525 ng/mL
- Tmax (oral, 100 mg, single dose 100 mg (2 × 50 mg), fasted, read-out: Tmax, median (min–max)): 3.5 h
- Vd/F (oral, 100 mg, single dose 100 mg (2 × 50 mg), fasted): 282 L
- half-life (oral, 100 mg, single dose 100 mg (2 × 50 mg), fasted, read-out: t½, arithmetic mean (SD) (converted)): 12.8 h
- AUC(0-t) (oral, 200 mg, single dose 200 mg (4 × 50 mg), fasted, read-out: AUC0–tlast, geometric mean (CV%)): 11500 ng·h/mL
- AUC(0-inf) (oral, 200 mg, single dose 200 mg (4 × 50 mg), fasted, read-out: AUC0–∞, geometric mean (CV%)): 12900 ng·h/mL
- Cmax (oral, 200 mg, single dose 200 mg (4 × 50 mg), fasted, read-out: Cmax, geometric mean (CV%)): 1010 ng/mL
- Tmax (oral, 200 mg, single dose 200 mg (4 × 50 mg), fasted, read-out: Tmax, median (min–max)): 3.5 h
- Vd/F (oral, 200 mg, single dose 200 mg (4 × 50 mg), fasted): 344 L
- half-life (oral, 200 mg, single dose 200 mg (4 × 50 mg), fasted, read-out: t½, arithmetic mean (SD) (converted)): 15.5 h
- AUC(0-t) (oral, 400 mg, single dose 400 mg (8 × 50 mg), fasted, read-out: AUC0–tlast, geometric mean (CV%)): 19000 ng·h/mL
- AUC(0-inf) (oral, 400 mg, single dose 400 mg (8 × 50 mg), fasted, read-out: AUC0–∞, geometric mean (CV%)): 21600 ng·h/mL
- Cmax (oral, 400 mg, single dose 400 mg (8 × 50 mg), fasted, read-out: Cmax, geometric mean (CV%)): 1550 ng/mL
- Tmax (oral, 400 mg, single dose 400 mg (8 × 50 mg), fasted, read-out: Tmax, median (min–max)): 4 h
- Vd/F (oral, 400 mg, single dose 400 mg (8 × 50 mg), fasted): 398 L
- half-life (oral, 400 mg, single dose 400 mg (8 × 50 mg), fasted, read-out: t½, arithmetic mean (SD) (converted)): 15.2 h
- Tmax (oral, 5–50 mg (5 mg capsule), single dose, fasted, read-out: Median Tmax, range across doses): 1.75 to 2 h
- Tmax (oral, 50–400 mg (50 mg capsule), single dose, fasted, read-out: Median Tmax, range across doses): 3.04 to 4 h
- half-life (po, single and multiple oral doses, fasted, read-out: Mean half-life, range across doses): 11 to 16 h
- Tmax (po, single and multiple oral doses, fasted, read-out: Time of maximum plasma concentration (median), range across doses): 1.75 to 4 h
- half-life (po, single oral dose, read-out: Arithmetic mean terminal half-life (t½), range across doses): 11.3 to 15.5 h
- CL/F, geometric mean (CV%) (single dose 5 mg (1 × 5 mg), fasted): 7.02 (24.5) L/h
- CL/F, geometric mean (CV%) (single dose 20 mg (4 × 5 mg), fasted): 5.97 (10.2) L/h
- CL/F, geometric mean (CV%) (single dose 50 mg (1 × 50 mg), fasted): 11.1 (43.2) L/h
- CL/F, geometric mean (CV%) (single dose 50 mg (1 × 50 mg), fed): 9.23 (21.5) L/h
- CL/F, geometric mean (CV%) (single dose 50 mg (10 × 5 mg), fasted): 6.69 (42.6) L/h
- CL/F, geometric mean (CV%) (single dose 100 mg (2 × 50 mg), fasted): 15.7 (21.1) L/h
- CL/F, geometric mean (CV%) (single dose 200 mg (4 × 50 mg), fasted): 15.5 (33.7) L/h
- CL/F, geometric mean (CV%) (single dose 400 mg (8 × 50 mg), fasted): 18.5 (25.0) L/h
